In data set [1] the test system is Severe acute respiratory syndrome coronavirus 2. In words: Reversible covalent inhibition of SARS-CoV-2 main protease expressed in Escherichia coli BL21 competent cells using DABCYL-Val-Asn-Ser-Thr-Leu-Gln-Ser-Gly-Leu-Arg-Lys-EDANS as fluorogenic substrate assessed as reduction in product formation at 10 uM incubated for 30 mins by dilution assay relative to control.

Data set [2] shares this test system. The data set can be described thus: Competitive inhibition of SARS-CoV-2 main protease assessed as inhibitor concentration dependent Km with constant Vmax at 0.5 to 10 uM using varying concentrations of DABCYL-KTSAVLQ1SGFRKM-E(EDANS)-NH2 as substrate by double reciprocal plot analysis. Conditions: dose 0.5-10 µM.
Data set [3] shares this test system. In words: Reversible covalent inhibition of SARS-CoV-2 main protease expressed in Escherichia coli BL21 competent cells using DABCYL-Val-Asn-Ser-Thr-Leu-Gln-Ser-Gly-Leu-Arg-Lys-EDANS as fluorogenic substrate assessed as reduction in product formation at 10 uM preincubated for 30 mins in absence of DTT by dilution assay relative to control.
Data set [4] can be described thus: Distribution coefficient, logD of compound at pH 7.4 by shake flask method. In kind it is physicochemical. The settings on record: octanol/water.
Data set [5] concerns SARS-CoV-2. It is filed as functional, organism-based, Vero E6. Conditions: Severe acute respiratory syndrome coronavirus 2, USA_WA1/2020, Vero C1008.
The test system of data set [6] is Severe acute respiratory syndrome coronavirus 2. The data set can be described thus: Reversible covalent inhibition of SARS-CoV-2 main protease expressed in Escherichia coli BL21 competent cells using DABCYL-Val-Asn-Ser-Thr-Leu-Gln-Ser-Gly-Leu-Arg-Lys-EDANS as fluorogenic substrate assessed as reduction in product formation at 1 uM incubated for 30 mins by dilution assay relative to control.

For data set [7], the system named is SARS-CoV-2. In words: Antiviral activity against SARS-CoV-2 USA_WA1/2020 infected in human Calu-3 cells assessed as reduction in viral RNA replication pretreated for 1 hr with compound followed by viral infection for 1.5 hrs then followed by washout the cells and re-incubated with compounds for 24 hrs by qRT-PCR method. It is filed as functional, organism-based. Conditions: Severe acute respiratory syndrome coronavirus 2, USA_WA1/2020, Calu-3.

The nature of data set [8]: Inhibition of GST-tagged SARS-CoV-2 main protease expressed in Escherichia coli BL21 competent cells using DABCYL-Val-Asn-Ser-Thr-Leu-Gln-Ser-Gly-Leu-Arg-Lys-EDANS as substrate measured every 10 mins for 1 hr by FRET assay. Details: species or system Severe acute respiratory syndrome coronavirus 2.
In data set [9] the test system is Severe acute respiratory syndrome coronavirus 2. The data set can be described thus: Reversible covalent inhibition of SARS-CoV-2 main protease expressed in Escherichia coli BL21 competent cells using DABCYL-Val-Asn-Ser-Thr-Leu-Gln-Ser-Gly-Leu-Arg-Lys-EDANS as fluorogenic substrate assessed as reduction in product formation at 1 to 10 uM preincubated for 30 mins in presence of DTT by dilution assay. The settings on record: dose 1-10 µM.

Data set [10] shares this test system. In words: Reversible covalent inhibition of SARS-CoV-2 main protease expressed in Escherichia coli BL21 competent cells using DABCYL-Val-Asn-Ser-Thr-Leu-Gln-Ser-Gly-Leu-Arg-Lys-EDANS as fluorogenic substrate assessed as reduction in product formation at 1 uM preincubated for 30 mins in absence of DTT by dilution assay relative to control.
Data set [11] shares this test system. The data set can be described thus: Reversible covalent inhibition of SARS-CoV-2 main protease expressed in Escherichia coli BL21 competent cells using DABCYL-Val-Asn-Ser-Thr-Leu-Gln-Ser-Gly-Leu-Arg-Lys-EDANS as fluorogenic substrate assessed as reduction in product formation at 10 uM preincubated for 30 mins in presence of DTT by dilution assay relative to control.

For data set [12] the test system is unchanged. The data set can be described thus: Reversible covalent inhibition of SARS-CoV-2 main protease expressed in Escherichia coli BL21 competent cells using DABCYL-Val-Asn-Ser-Thr-Leu-Gln-Ser-Gly-Leu-Arg-Lys-EDANS as fluorogenic substrate assessed as reduction in product formation at 1 uM preincubated for 30 mins in presence of DTT by dilution assay relative to control.

A short description of data set [13]: Inhibition of SARS-CoV-2 main protease expressed in Escherichia coli using MCA-AVLQSGFR-Lys(Dnp)-Lys-NH2 as substrate by FRET assay. Details: species or system Severe acute respiratory syndrome coronavirus 2.
Data set [14] has as its system SARS-CoV-2. In words: microbe, parasite or virus in culture. Conditions: Severe acute respiratory syndrome coronavirus 2, Vero C1008, 24 h.
A short description of data set [15]: Toxicity in human iPSC derived lung organoids infected with SARS-CoV-2 USA_WA1/2020 measured after 24 hrs.

pEC50, pIC50: −log10 of the molar value. The source made the active and inactive calls. The calls are words filed in the database; no cut-off is given here.

As to `O=c1c2ccccc2[se]n1-c1ccccc1` [EBSELEN], the inhibition – broadly, the drop in the measured response relative to a control, in per cent – in [1] came out at 89%; in [3], 91%; in data set [6] it was 65%. For the same molecule, the inhibition entry in [2] is “Active”. The log distribution coefficient (logD) (commonly lipophilicity at a set pH, counting ionised and neutral species) in data set [4] turned out to be 0.92. In addition, the pEC50 (commonly the EC50 on a negative log10 scale, so that one unit is a factor of ten) is less than 4.70 with SARS-CoV-2 [5] and 5.30 in the data set with SARS-CoV-2 [7].

With `CCC(CC)COC(=O)[C@H](C)NP(=O)(OC[C@H]1O[C@@](C#N)(c2ccc3c(N)ncnn23)[C@H](O)[C@@H]1O)Oc1ccccc1` (single isomer, unassigned), the negative-log EC50 (pEC50) in the data set with SARS-CoV-2 [5] was 5.74; in the data set on SARS-CoV-2 [7], 6.10.

In the case of `O=c1c2ccccc2[se]n1-c1ccc(F)cc1`, in the data set with SARS-CoV-2 [5], the negative-log EC50 (pEC50) is 4.78. The pIC50 (as a rule, the IC50 on a negative log10 scale, so that one unit is a factor of ten) in data set [8] was 5.56.

Consider `CCCCCCCCn1[se]c2ccccc2c1=O`, for which the negative logarithm of the EC50 (pEC50) in the data set with SARS-CoV-2 [5] is less than 4.70. This molecule also showed a negative logarithm of the IC50 (pIC50) in data set [8] of 5.57.

As to `COc1ccc(Cn2[se]c3ccccc3c2=O)c(OC)c1`, the logD in [4] is 0.85. The molecule also showed a negative-log EC50 (pEC50) in the data set with SARS-CoV-2 [5] of 4.58. The inhibition result in data set [9] is “Active”. The molecule also had a negative-log IC50 (pIC50) in [8] of 6.21.

Consider `O=c1c2ccccc2[se]n1-c1ccc(C(F)(F)F)cc1`, for which the inhibition worked out at 44% in data set [10], 43% in data set [11], 86% in data set [1] and 48% in data set [3]. Besides, the inhibition result in data set [2] was “Active”. Moreover, the logD in data set [4] was found to be 3.19. In addition, the pEC50 in the data set on SARS-CoV-2 [5] was 4.95; with SARS-CoV-2 [7], 5.55. The negative logarithm of the IC50 (pIC50) in [8] is 6.05.

Regarding `O=c1c2ccccc2[se]n1-c1ccc(F)cc1C(F)(F)F`, in the data set on SARS-CoV-2 [5], the pEC50 was less than 4.70. In [8], the pIC50 is less than 5.00.

As to `Cc1ccc(-n2[se]c3ccccc3c2=O)cc1`, the pEC50 in the data set with SARS-CoV-2 [5] is 4.81. The molecule further showed a negative-log IC50 (pIC50) in [8] of 5.64.

In the case of `Cc1ccccc1-n1[se]c2ccccc2c1=O`, in the data set on SARS-CoV-2 [5], the pEC50 is 4.68. Besides, in data set [8], the pIC50 was 5.13.

`O=c1c2ccccc2[se]n1-c1ccccc1F` gave a pEC50 with SARS-CoV-2 [5] of less than 4.70. The pIC50 in data set [8] is less than 5.00.

In the data set on SARS-CoV-2 [5], `O=c1c2ccccc2[se]n1-c1ccc(Cl)cc1OC(F)(F)F` gave a negative logarithm of the EC50 (pEC50) of less than 4.70. In addition, the pIC50 in data set [8] is less than 5.00.

In turn, `COc1cc(F)ccc1-n1[se]c2ccccc2c1=O` gave a pEC50 with SARS-CoV-2 [5] of less than 4.70. Further, in [8], the negative logarithm of the IC50 (pIC50) is 5.74.

In turn, `O=c1c2ccccc2[se]n1-c1c(F)cccc1F` showed a pEC50 with SARS-CoV-2 [5] of less than 4.70. The molecule further showed a pIC50 in data set [8] of 5.68.

`COc1ccc2c(=O)n(-c3ccccc3)[se]c2c1` had a negative logarithm of the EC50 (pEC50) with SARS-CoV-2 [5] of 4.95. The pIC50 in data set [8] is 5.19.

As for `O=c1c2ccccc2[se]n1-c1cc(Cl)cc(Cl)c1`, the logD in [4] is listed as 1.67. This molecule also gave a pEC50 in the data set with SARS-CoV-2 [5] of 4.74. Moreover, in data set [9], the inhibition result was “Active”. The negative-log IC50 (pIC50) in data set [8] was 6.19.

As to `COc1ccc(F)cc1-n1[se]c2ccccc2c1=O`, the pEC50 in the data set on SARS-CoV-2 [5] is less than 4.70. The molecule also showed a pIC50 in data set [8] of 5.48.

Regarding `N#Cc1cccc(-n2[se]c3ccccc3c2=O)c1`, the figures for the inhibition in data set [1], in data set [3] and in [6] were 94%, 64% and 29%, respectively. Also, the logD in data set [4] was found to be 1.45. Also, in the data set with SARS-CoV-2 [5], the pEC50 was 5.70. For the same molecule, in data set [8], the pIC50 was 6.42.

`COc1ccc(Cl)cc1-n1[se]c2ccccc2c1=O` showed a negative logarithm of the EC50 (pEC50) in the data set with SARS-CoV-2 [5] of less than 4.70. Besides, the pIC50 in [8] was less than 5.00.

For `O=c1c2ccccc2[se]n1-c1cccc(Cl)c1`, in data set [4], the pH-dependent lipophilicity (logD) is on record as 1.53. The molecule further showed a pEC50 in the data set with SARS-CoV-2 [5] of 4.76. The inhibition entry in data set [9] is “Active”. For the same molecule, the negative logarithm of the IC50 (pIC50) in data set [8] was 6.17.

With `CSc1ccccc1-n1[se]c2ccccc2c1=O`, the pEC50 in the data set with SARS-CoV-2 [5] is less than 4.70. This molecule also showed a pIC50 in data set [8] of less than 5.00.

Molecule `CCCCCCCn1[se]c2ccccc2c1=O` gave a pEC50 with SARS-CoV-2 [5] of 4.76. The negative-log IC50 (pIC50) in [8] is 5.25.

Consider `COc1cccc(-n2[se]c3ccccc3c2=O)c1`, for which the pEC50 in the data set on SARS-CoV-2 [5] is 4.82. In data set [8], this molecule had a pIC50 of less than 5.00.

Take `CCCCCn1[se]c2ccccc2c1=O`: the pEC50 with SARS-CoV-2 [5] is less than 4.70. The molecule further had a pIC50 in data set [8] of less than 5.00.

For `Cc1ccc(-n2[se]c3ccccc3c2=O)cc1C`, in the data set with SARS-CoV-2 [5], the negative logarithm of the EC50 (pEC50) is 4.91. Besides, the pIC50 in [8] is less than 5.00.

With `COc1ccc(-n2[se]c3ccccc3c2=O)cc1`, the pEC50 in the data set on SARS-CoV-2 [5] is 5.77. Also, the pIC50 in data set [8] is 5.90.

As for `O=c1c2ccccc2[se]n1-c1ccc(Br)cc1`, the logD in [4] was found to be 1.46. Moreover, the pEC50 with SARS-CoV-2 [5] was 5.28; with SARS-CoV-2 [7] it was 4.80. Moreover, the negative-log IC50 (pIC50) in data set [8] was 5.56.

In the case of `O=c1c2ccccc2[se]n1Cc1ccc(F)cc1`, the inhibition in data set [12] was found to be 53%. Besides, in the data set with SARS-CoV-2 [5], the pEC50 is less than 4.70. This molecule also gave a pIC50 in [8] of 6.00.

In data set [13], `O=C[C@H](C[C@@H]1CCNC1=O)NC(=O)[C@H](Cc1cccc(F)c1)NC(=O)c1cc2ccccc2[nH]1` gave a pIC50 of 7.40. In addition, the pEC50 in the data set with SARS-CoV-2 [14] is 6.14.

In turn, `CCc1ccc(-n2[se]c3ccccc3c2=O)cc1` had a logD in data set [4] of 2.87. The negative-log EC50 (pEC50) was 5.19 with SARS-CoV-2 [5] and 5.06 in the data set on SARS-CoV-2 [7]. Moreover, in [8], the negative-log IC50 (pIC50) is 5.21.

Take `O=c1c2ccccc2[se]n1-c1cccc(C(F)(F)F)c1`: the pH-dependent lipophilicity (logD) in [4] was found to be 3.18. In addition, the negative logarithm of the EC50 (pEC50) in the data set with SARS-CoV-2 [5] was 6.10; with SARS-CoV-2 [7], 5.89. Also, the negative-log IC50 (pIC50) in data set [8] was 5.56. For the same molecule, the Activity entry in data set [15] is “Non-Toxic”.

Consider `COc1ccc(Cn2[se]c3ccccc3c2=O)cc1`, for which the pEC50 in the data set on SARS-CoV-2 [5] was less than 4.70. For the same molecule, in data set [8], the pIC50 is less than 5.00.

In the data set with SARS-CoV-2 [5], `O=c1c2ccccc2[se]n1Cc1ccc(C(F)(F)F)cc1` gave a negative-log EC50 (pEC50) of 4.95. In data set [8], this molecule showed a negative logarithm of the IC50 (pIC50) of less than 5.00.

Values taken from ChEMBL document CHEMBL5042483, “Discovery and Mechanism of SARS-CoV-2 Main Protease Inhibitors” (J Med Chem, 2022).
